The results in this text go back to patent US6762052B1, “DNA sequence encoding flavin-containing monooxygenase” (priority 1993, dated 2004).

“Also recorded” adds a separate entry of the source.

The target of the series is T1, adult human liver flavin-containing monooxygenase (form 3) (Homo sapiens, UniProt P31513, E158K).
T1 sequence (P31513 1-532 E158K): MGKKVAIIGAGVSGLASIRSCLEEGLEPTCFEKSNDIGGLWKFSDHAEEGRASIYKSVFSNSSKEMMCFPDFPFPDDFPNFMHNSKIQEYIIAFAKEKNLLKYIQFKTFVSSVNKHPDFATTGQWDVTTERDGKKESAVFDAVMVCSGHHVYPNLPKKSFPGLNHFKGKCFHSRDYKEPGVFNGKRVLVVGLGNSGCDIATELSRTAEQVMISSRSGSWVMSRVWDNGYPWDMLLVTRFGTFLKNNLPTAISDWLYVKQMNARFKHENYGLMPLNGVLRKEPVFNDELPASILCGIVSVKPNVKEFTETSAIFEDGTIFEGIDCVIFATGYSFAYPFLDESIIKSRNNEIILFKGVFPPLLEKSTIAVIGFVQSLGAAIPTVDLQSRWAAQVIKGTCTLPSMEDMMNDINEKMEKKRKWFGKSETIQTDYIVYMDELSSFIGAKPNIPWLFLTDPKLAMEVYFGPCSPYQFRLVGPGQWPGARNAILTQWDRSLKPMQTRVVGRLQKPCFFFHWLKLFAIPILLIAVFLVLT
Nature of the series: N- and S-oxygenation by cDNA-expressed HLFMO 3 (solubilized protein from E. coli transformed with pTrcHLFMO 3), HPLC. Here is the method:
In all cases examined, product formation was directly determined by HPLC analysis of organic extracts.
Competent NM522 Escherichia coli cells were transformed with the pTrc HLFMO 3 plasmid. […] After inoculation with a fresh overnight culture of NM522 containing pTrcHLFMO 3, the culture was grown at 37° C. until Abs600 was approximately 0.5 absorbance units. Finally, IPTG (0.8 mM) was added to the culture to induce expression of protein and the culture was left to grow overnight at 37° C.
The bacterial pellet was resuspended in 5 volumes of 50 mM potassium phosphate buffer (pH 8.4) containing 1% Triton X-100, 0.1% L-, α-phosphatidylcholine (L-α-lecithin) from egg yolk, 500 μM PMSF, and 1 mM EDTA. The mixture was sonicated and then centrifuged to remove cellular debris. As a control, bacterial lysate extracts from IPTG-induced pTrc99A-transformed NM522 cells (i.e., pTrc99A without the HLFMO 3 cDNA insert) were prepared under the same conditions.
Human liver samples were obtained from the Department of Surgery (UCSF) and with a protocol from the Medical College of Wisconsin (S. Wrighton).
A typical incubation mixture (final volume 0.25 ml) contained hepatic microsomes (0.4 mg of protein) or bacterial lysate (2.3 mg of protein), NADP^+ (0.5 mM), glucose-6-phosphate (2.0 mM), glucose-6-phosphate dehydrogenase (1 IU), DETAPAC (0.8 mM) and potassium phosphate buffer (50 mM, pH 8.4). Reactions were initiated by the addition of substrate and terminated at designated times by the addition of three volumes of cold dichloromethane, mixed thoroughly and centrifuged to separate the aqueous and organic fractions. N- and S-oxide metabolic products in the resulting organic extracts were separated and quantified by HPLC. […] Thiobenzamide and thiobenzamide S-oxide were quantified with this same, HPLC system employing a mobile phase of methanol/acetonitrile/60% perchloric acid (20:80:0.016, v/v) which gave retention volumes of 2.7 and 7.0 ml, respectively. […] The major metabolites formed in the incubations were also subjected to mass spectral analysis after extraction of isolated HPLC fractions.
RPLC of the S-oxide diastereomers with a Chiracel OT chiral analytical column (25 cm×0.15 cm inner diameter, Daicel Chemical Co., New York, N.Y.) was accomplished with a Beckman system, Kratos UV detector (240 nm) and a Hewlett Packard Integrator. […] Quantification was accomplished by comparing integrated HPLC peak areas after taking into account the difference in the extinction coefficients at 240 nm. Likewise, the cis and trans S-oxide diasteromers of (+)- and (−)-2-methyl-1,-benzodithiole were separated with a Chiracel OT chiral analytical column.

For orientation: Km means the substrate concentration at which the rate is half of its maximum. Turning to `CN(C)CCCCCN1c2ccccc2Sc2ccc(C(F)(F)F)cc21` [Compound 5], where the note is “0.1 mM substrate, mean of 5 determinations ± SD”, the “N-oxide formation, Expressed HFLMO” value is listed as 200.0 ± 45.7 pmol/min/mg of protein. For the same molecule, under “100,000×g pellet”, the “N-oxygenase activity in the pellet” value was 0.043 nmol/min/mg of protein and the “share of N-oxygenase activity in the pellet” value is 16%. The “share of N-oxygenase activity in the supernatant fraction” value (100,000×g supernatant) is given as 84%. Where the note is “100,000×g supernatant of solubilized recombinant HLFMO 3 protein”, the “N-oxygenase activity in the supernatant fraction” value is listed as 0.23 nmol/min/mg of protein. For the same molecule, under “N- or S-oxide formation, for the 4-bromophenyl-1,3-oxathiolanes formation of the trans S-oxide”, the “Vmax, Expressed HLFMO” value is 0.023 nmol/min/mg of protein. Further, the “substrate activity for human liver microsomes and expressed HLFMO 3, in words” value (human liver microsomes and solubilized protein from E. coli transformed with pTrcHLFMO 3) is “better substrates; also recorded: excellent substrates”. Also, the Michaelis constant (Km) (read-out: Km, Expressed HLFMO, N- or S-oxide formation, for the 4-bromophenyl-1,3-oxathiolanes formation of the trans S-oxide) stood at 64.6 µM.
